Experimental data from PubChem BioAssay AID1259407 (Chemical Carcinogenesis Research Information System (CCRIS), 2018).
The source made the active and inactive calls. The rule behind the calls is not given here.

System: CCRIS mutagenicity, Ames/micronucleus/aberration tests
Assay: CCRIS mutagenicity studies
[1] = Test System: AMES SALMONELLA TYPHIMURIUM, Strain/Indicator: TA98, Metabolic Activation: NONE, Method: STANDARD PLATE
[2] = Test System: AMES SALMONELLA TYPHIMURIUM, Strain/Indicator: TA100, Metabolic Activation: NONE, Method: STANDARD PLATE
[3] = Test System: AMES SALMONELLA TYPHIMURIUM, Strain/Indicator: TA100, Metabolic Activation: RAT, LIVER, S-9, AROCLOR 1254, Method: STANDARD PLATE
[4] = Test System: AMES SALMONELLA TYPHIMURIUM, Strain/Indicator: TA1535, Metabolic Activation: NONE, Method: STANDARD PLATE
[5] = Test System: AMES SALMONELLA TYPHIMURIUM, Strain/Indicator: TA1535, Metabolic Activation: RAT, LIVER, S-9, AROCLOR 1254, Method: STANDARD PLATE
[6] = Test System: AMES SALMONELLA TYPHIMURIUM, Strain/Indicator: TA1537, Metabolic Activation: NONE, Method: STANDARD PLATE
[7] = Test System: AMES SALMONELLA TYPHIMURIUM, Strain/Indicator: TA1537, Metabolic Activation: RAT, LIVER, S-9, AROCLOR 1254, Method: STANDARD PLATE
[8] = Test System: AMES SALMONELLA TYPHIMURIUM, Strain/Indicator: TA1538, Metabolic Activation: NONE, Method: STANDARD PLATE
[9] = Test System: AMES SALMONELLA TYPHIMURIUM, Strain/Indicator: TA1538, Metabolic Activation: RAT, LIVER, S-9, AROCLOR 1254, Method: STANDARD PLATE
[10] = Test System: AMES SALMONELLA TYPHIMURIUM, Strain/Indicator: TA98, Metabolic Activation: NONE, Method: PREINCUBATION
[11] = Test System: AMES SALMONELLA TYPHIMURIUM, Strain/Indicator: TA98, Metabolic Activation: RAT, LIVER, S-9, PCB, Method: PREINCUBATION
[12] = Test System: AMES SALMONELLA TYPHIMURIUM, Strain/Indicator: TA100, Metabolic Activation: NONE, Method: PREINCUBATION
[13] = Test System: AMES SALMONELLA TYPHIMURIUM, Strain/Indicator: TA100, Metabolic Activation: RAT, LIVER, S-9, PCB, Method: PREINCUBATION

Compound | mutagenic call [1] | mutagenic call [2] | mutagenic call [3] | mutagenic call [4] | mutagenic call [5] | mutagenic call [6] | mutagenic call [7] | mutagenic call [8] | mutagenic call [9] | mutagenic call [10] | mutagenic call [11] | mutagenic call [12] | mutagenic call [13] | other results
Oc1ccc2c(c1)OCO2 | inactive; negative | inactive; negative | inactive; negative | inactive; negative | inactive; negative | inactive; negative | inactive; negative | inactive; negative | inactive; negative |  |  |  |  | mutagenic call (Test System: AMES SALMONELLA TYPHIMURIUM, Strain/Indicator: TA98, Metabolic Activation: HAMSTER, LIVER, S-9, AROCLOR 1254, Method: STANDARD PLATE): inactive; negative; mutagenic call (Test System: AMES SALMONELLA TYPHIMURIUM, Strain/Indicator: TA98, Metabolic Activation: RAT, LIVER, S-9, AROCLOR 1254, Method: STANDARD PLATE): inactive; negative; mutagenic call (Test System: AMES SALMONELLA TYPHIMURIUM, Strain/Indicator: TA100, Metabolic Activation: HAMSTER, LIVER, S-9, AROCLOR 1254, Method: STANDARD PLATE): inactive; negative; mutagenic call (Test System: AMES SALMONELLA TYPHIMURIUM, Strain/Indicator: TA1535, Metabolic Activation: HAMSTER, LIVER, S-9, AROCLOR 1254, Method: STANDARD PLATE): inactive; negative; mutagenic call (Test System: AMES SALMONELLA TYPHIMURIUM, Strain/Indicator: TA1537, Metabolic Activation: HAMSTER, LIVER, S-9, AROCLOR 1254, Method: STANDARD PLATE): inactive; negative; mutagenic call (Test System: AMES SALMONELLA TYPHIMURIUM, Strain/Indicator: TA1538, Metabolic Activation: HAMSTER, LIVER, S-9, AROCLOR 1254, Method: STANDARD PLATE): inactive; negative; mutagenic call (Test System: MOUSE LYMPHOMA, Strain/Indicator: L5178Y (TK+/TK-), Metabolic Activation: NONE, Method: SUSPENSION/PLATE): active; positive; mutagenic call (Test System: MOUSE LYMPHOMA, Strain/Indicator: L5178Y (TK+/TK-), Metabolic Activation: RAT, LIVER, S-9, AROCLOR 1254, Method: SUSPENSION/PLATE): active; positive; mutagenic call (Test System: Mouse lymphoma, Strain/Indicator: L5178Y (tk+/tk-), Metabolic Activation: None, Method: Suspension/plate): active; positive; mutagenic call (Test System: Mouse lymphoma, Strain/Indicator: L5178Y (tk+/tk-), Metabolic Activation: Rat, Liver, S-9, Aroclor 1254, Method: Suspension/plate): active; positive
CCCCC1C(=O)N(c2ccccc2)N(c2ccc(O)cc2)C1=O (stereo not drawn) | inactive; negative | inactive; negative |  |  |  |  |  |  |  | inactive; negative | inactive; negative | inactive; negative | active; positive | mutagenic call (Test System: AMES SALMONELLA TYPHIMURIUM, Strain/Indicator: TA97A, Metabolic Activation: NONE, Method: STANDARD PLATE): inactive; negative; mutagenic call (Test System: AMES SALMONELLA TYPHIMURIUM, Strain/Indicator: TA97A, Metabolic Activation: RAT LIVER S-9, PHENOBARBITAL, Method: STANDARD PLATE): inactive; negative; mutagenic call (Test System: AMES SALMONELLA TYPHIMURIUM, Strain/Indicator: TA98, Metabolic Activation: GUINEA PIG, LIVER, S-9, PCB, Method: PREINCUBATION): inactive; negative; mutagenic call (Test System: AMES SALMONELLA TYPHIMURIUM, Strain/Indicator: TA98, Metabolic Activation: HAMSTER, LIVER, S-9, PCB, Method: PREINCUBATION): inactive; negative; mutagenic call (Test System: AMES SALMONELLA TYPHIMURIUM, Strain/Indicator: TA98, Metabolic Activation: MOUSE, LIVER, S-9, PCB, Method: PREINCUBATION): inactive; negative; mutagenic call (Test System: AMES SALMONELLA TYPHIMURIUM, Strain/Indicator: TA98, Metabolic Activation: RAT LIVER S-9, PHENOBARBITAL, Method: STANDARD PLATE): inactive; negative; mutagenic call (Test System: AMES SALMONELLA TYPHIMURIUM, Strain/Indicator: TA100, Metabolic Activation: GUINEA PIG, LIVER, S-9, PCB, Method: PREINCUBATION): inactive; negative; mutagenic call (Test System: AMES SALMONELLA TYPHIMURIUM, Strain/Indicator: TA100, Metabolic Activation: HAMSTER, LIVER, S-9, PCB, Method: PREINCUBATION): inactive; negative; mutagenic call (Test System: AMES SALMONELLA TYPHIMURIUM, Strain/Indicator: TA100, Metabolic Activation: MOUSE, LIVER, S-9, PCB, Method: PREINCUBATION): inactive; negative; mutagenic call (Test System: AMES SALMONELLA TYPHIMURIUM, Strain/Indicator: TA100, Metabolic Activation: RAT LIVER S-9 PHENOBARBITAL, Method: STANDARD PLATE): inactive; negative; mutagenic call (Test System: AMES SALMONELLA TYPHIMURIUM, Strain/Indicator: TA102, Metabolic Activation: NONE, Method: STANDARD PLATE): inactive; negative; mutagenic call (Test System: AMES SALMONELLA TYPHIMURIUM, Strain/Indicator: TA102, Metabolic Activation: RAT LIVER S-9, PHENOBARBITAL, Method: STANDARD PLATE): inactive; negative
CCCCCCCCCCCCCCCCCCCCCCO | inactive; negative | inactive; negative |  | inactive; negative |  | inactive; negative |  | inactive; negative |  |  |  |  |  | mutagenic call (Test System: AMES SALMONELLA TYPHIMURIUM, Strain/Indicator: TA98, Metabolic Activation: RAT LIVER S-9, Method: STANDARD PLATE): inactive; negative; mutagenic call (Test System: AMES SALMONELLA TYPHIMURIUM, Strain/Indicator: TA100, Metabolic Activation: RAT LIVER S-9, Method: STANDARD PLATE): inactive; negative; mutagenic call (Test System: AMES SALMONELLA TYPHIMURIUM, Strain/Indicator: TA1535, Metabolic Activation: RAT LIVER S-9, Method: STANDARD PLATE): inactive; negative; mutagenic call (Test System: AMES SALMONELLA TYPHIMURIUM, Strain/Indicator: TA1537, Metabolic Activation: RAT LIVER S-9, Method: STANDARD PLATE): inactive; negative; mutagenic call (Test System: AMES SALMONELLA TYPHIMURIUM, Strain/Indicator: TA1538, Metabolic Activation: RAT LIVER S-9, Method: STANDARD PLATE): inactive; negative; mutagenic call (Test System: CHINESE HAMSTER V-79, Strain/Indicator: V-79 (HGPRT)/THIOGUANINE, Metabolic Activation: NONE, Method: STANDARD PLATE): inactive; negative; mutagenic call (Test System: CHINESE HAMSTER V-79, Strain/Indicator: V-79 (HGPRT)/THIOGUANINE, Metabolic Activation: RAT LIVER S-9, Method: STANDARD PLATE): inactive; negative
O=C1c2ccccc2C(=O)c2c1ccc(O)c2O |  | inactive; negative | inactive; negative | inactive; negative | inactive; negative | active; positive | active; positive | inactive; negative | inactive; negative | inactive; negative | inactive; negative | inactive; negative | inactive; negative | mutagenic call (Test System: AMES SALMONELLA TYPHIMURIUM, Strain/Indicator: TA1537, Metabolic Activation: RAT, LIVER, S-9, Method: PREINCUBATION): active; positive; mutagenic call (Test System: UDS RODENT HEPATOCYTES, Strain/Indicator: THY INCORP (NON-S-PHASE), Metabolic Activation: NONE, Method: AUTORADIOGRAPHY): active; positive
